Source: BindingDB's records for doi:10.1016/0024-3205(96)00449-3 (Eli Lilly, 1996)

Columns and labels:
[1] = target: T1, 5-hydroxytryptamine receptor 2C (Homo sapiens, UniProt P28335)
T1 sequence (P28335 whole entry): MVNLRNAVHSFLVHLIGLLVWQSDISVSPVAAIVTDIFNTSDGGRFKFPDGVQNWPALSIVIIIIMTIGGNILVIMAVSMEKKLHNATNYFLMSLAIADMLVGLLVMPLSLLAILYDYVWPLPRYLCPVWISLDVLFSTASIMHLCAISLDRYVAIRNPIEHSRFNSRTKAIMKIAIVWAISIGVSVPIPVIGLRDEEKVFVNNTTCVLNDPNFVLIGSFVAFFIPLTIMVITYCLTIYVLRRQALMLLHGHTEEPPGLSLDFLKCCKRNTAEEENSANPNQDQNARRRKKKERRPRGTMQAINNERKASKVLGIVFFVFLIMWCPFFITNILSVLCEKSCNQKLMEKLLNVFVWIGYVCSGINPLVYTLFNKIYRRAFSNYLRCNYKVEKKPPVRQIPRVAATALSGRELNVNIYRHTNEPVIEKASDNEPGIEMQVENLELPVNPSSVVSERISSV

[2] = target: 5-hydroxytryptamine receptor 2B (Homo sapiens, UniProt P41595)
[3] = target: 5-hydroxytryptamine receptor 2A (Homo sapiens, UniProt P28223)
Chain of 5-hydroxytryptamine receptor 2A (P28223 whole entry): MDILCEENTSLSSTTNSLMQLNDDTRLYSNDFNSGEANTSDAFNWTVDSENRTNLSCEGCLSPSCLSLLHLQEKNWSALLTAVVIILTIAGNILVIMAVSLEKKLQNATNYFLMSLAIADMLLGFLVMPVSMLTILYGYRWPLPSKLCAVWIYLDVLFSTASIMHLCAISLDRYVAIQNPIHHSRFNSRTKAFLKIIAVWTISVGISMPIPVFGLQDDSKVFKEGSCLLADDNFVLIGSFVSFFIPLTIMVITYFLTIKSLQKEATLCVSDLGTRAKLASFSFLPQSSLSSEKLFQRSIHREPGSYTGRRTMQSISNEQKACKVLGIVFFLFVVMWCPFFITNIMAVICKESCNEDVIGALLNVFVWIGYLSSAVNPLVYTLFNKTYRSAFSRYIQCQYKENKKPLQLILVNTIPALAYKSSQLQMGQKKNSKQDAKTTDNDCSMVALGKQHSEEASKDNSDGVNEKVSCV

Chain of 5-hydroxytryptamine receptor 2B (P41595 whole entry): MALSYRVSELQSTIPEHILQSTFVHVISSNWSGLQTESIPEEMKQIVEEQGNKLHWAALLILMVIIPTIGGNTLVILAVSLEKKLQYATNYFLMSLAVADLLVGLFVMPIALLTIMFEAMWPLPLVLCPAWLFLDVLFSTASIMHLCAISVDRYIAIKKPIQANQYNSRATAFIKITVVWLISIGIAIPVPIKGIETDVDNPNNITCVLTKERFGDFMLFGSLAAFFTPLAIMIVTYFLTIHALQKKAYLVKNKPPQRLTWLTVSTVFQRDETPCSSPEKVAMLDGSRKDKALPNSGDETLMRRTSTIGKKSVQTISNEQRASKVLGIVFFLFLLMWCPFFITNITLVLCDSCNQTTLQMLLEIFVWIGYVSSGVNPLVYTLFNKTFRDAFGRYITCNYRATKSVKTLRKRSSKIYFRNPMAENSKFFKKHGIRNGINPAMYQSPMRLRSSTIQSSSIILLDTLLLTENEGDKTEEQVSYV

SMILES	Ki [1] [nM]	Ki [2] [nM]	Ki [3] [nM]
CCc1c(COc2ccc(C=O)cc2)ccc(C(C)=O)c1O [LY 335102]	9730	7910	
CCCc1cc(C(C)(C)C)ccc1Oc1cccc(C=NN=C(N)N)c1 [LY 320951]	1190	2930	839
NC(N)=NN=C(c1ccccc1)C1CCC(Cl)S1 (stereo not drawn) [LY 063518]	1660	472	137
Cc1ccc(C)c(COc2ccc(C=NN=C(N)N)cc2)c1 [LY 334359]	401	388	569

Now those with a lower Ki [1], led by results:

Ki [1] [nM]	Ki [2] [nM]	Ki [3] [nM]	SMILES
257	1640	96	CCCc1c(COc2ccc(C=NN=C(N)N)cc2)ccc(C(=O)CC)c1O [LY 320954]
188	465	248	CCCc1c(COc2ccc(C=NN=C(N)N)c(OC)c2)ccc(C(=O)CC)c1O [LY 320950]
168	1210	65	CCCc1c(COc2ccc(C=NN=C(N)N)cc2)ccc(C(C)=O)c1O [LY 314228]
91	477	179	NC(N)=NN=Cc1cccc(OCc2ccc(C(=O)c3ccccc3)cc2)c1 [LY 334362]
